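48-hour exposure; five concentrations; linearly interpolated endpoints. At the GI50, growth is halved. TGI: concentration producing complete growth inhibition.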
What was measured:
Test in all cases: NCI tumour cell line growth inhibition, 48 h
OVCAR-4 ovarian = tested on: OVCAR-4 ovarian
OVCAR-5 ovarian = tested on: OVCAR-5 ovarian
COLO 205 colon = tested on: COLO 205 colon
NCI-H23 lung = tested on: NCI-H23 lung
SF-295 CNS = tested on: SF-295 CNS
SNB-19 CNS = tested on: SNB-19 CNS
SF-268 CNS = tested on: SF-268 CNS
PC-3 prostate = tested on: PC-3 prostate
DU-145 prostate = tested on: DU-145 prostate
NCI-H226 lung = tested on: NCI-H226 lung

Row | SMILES | GI50 (OVCAR-4 ovarian) [µM] | TGI (OVCAR-4 ovarian) [µM] | GI50 (OVCAR-5 ovarian) [µM] | TGI (OVCAR-5 ovarian) [µM] | GI50 (COLO 205 colon) [µM] | TGI (COLO 205 colon) [µM] | GI50 (NCI-H23 lung) [µM] | TGI (NCI-H23 lung) [µM] | GI50 (SF-295 CNS) [µM] | TGI (SF-295 CNS) [µM] | GI50 (SNB-19 CNS) [µM] | TGI (SNB-19 CNS) [µM] | GI50 (SF-268 CNS) [µM] | TGI (SF-268 CNS) [µM] | GI50 (PC-3 prostate) [µM] | TGI (PC-3 prostate) [µM] | GI50 (DU-145 prostate) [µM] | TGI (DU-145 prostate) [µM] | GI50 (NCI-H226 lung) [µM] | TGI (NCI-H226 lung) [µM]
1 | O=C(O)CCCCC(CCSCc1ccccc1)SCc1ccccc1 (stereo not drawn) | 70.2 | > 100 | > 100 | > 100 | > 92.3 | > 100 | 33.5 | > 100 | 25.8 | > 74.5 | 42.9 | > 100 | > 67.2 | > 100 | 49.1 | > 100 | > 71.2 | > 100 | > 71 | > 100
2 | CCOc1cccc(/C=N/NC(=O)c2ccccc2Nc2ccnc(C(F)(F)F)c2)c1O | 0.18 | – | 5.39 | > 100 | 0.347 | 36.9 | 1.08 | > 64.5 | 0.516 | 30.6 | 2.04 | > 100 | 0.599 | > 100 | 0.428 | > 39.1 | 0.63 | > 100 | 0.664 | 19.1
3 | Cc1nc2cccc([N+](=O)[O-])c2c(NCCCN(C)C)c1C | – | > 100 | – | 60.2 | – | 39.5 | – | > 31.6 | – | > 100 | – | > 100 | – | > 100 | – | > 50.8 | – | > 100 | – | > 90.4
4 | O=C1NNC=Nc2ccc(cc2)S(=O)(=O)c2ccc(cc2)N=CNNC1=O | – | > 100 | – | > 100 | – | > 100 | – | > 100 | – | > 100 | – | > 100 | – | > 100 | – | > 100 | – | > 100 | – | > 100
5 | CN(C)CCC(=O)N1C/C(=C/c2ccccc2)C(=O)/C(=C\c2ccccc2)C1 | – | 7.98 | – | 6.66 | – | 5.77 | – | 6.76 | – | 8.55 | – | 7.62 | – | 9.22 | – | 4.2 | – | 18.5 | – | 12.6
6 | N#C/C(=C1C=C/C(=N/O)C(Br)=C/1)c1ccccc1 | 5.41 | 37.9 | 2.6 | 6.8 | 6.89 | 54.7 | 5.26 | 96.8 | 2.81 | 8.47 | 8.7 | > 100 | 2.18 | 11.7 | 0.568 | 6.33 | 3.24 | 9.69 | 3.59 | 11.6
7 | CCc1c(Oc2ccc(C(C)=O)cc2)c2ccccc2[nH]c1=O | 70 | > 100 | 31.8 | > 100 | 13.7 | 40.7 | 18.7 | 59.5 | 16.3 | > 69.4 | 30.7 | > 100 | 18.1 | 61 | 0.97 | > 40.8 | 25.4 | 73.6 | 2.8 | 43.9
8 | N#Cc1ccc(C#Cc2ccccc2C#CCCCCO)cc1 | 26.2 | 65.9 | 15.1 | 28.4 | 18.1 | 34.3 | 17.2 | 33.8 | 21.3 | 41 | 15.8 | 29.9 | 18.9 | 40.7 | 15.6 | 28.9 | 16 | 29.8 | 20.9 | 38.6
9 | COc1ccc(C2=NN(C(=O)c3cc(OC)c(OC)c(OC)c3)C(c3ccc(C#N)cc3)C2)cc1OC (stereo not drawn) | 3.41 | > 65.1 | 5.24 | > 100 | 1.47 | 4.03 | 3.07 | > 74 | 0.351 | 2.37 | 3.02 | > 68.2 | 2.52 | > 66.6 | 1.94 | > 52.3 | 2.98 | > 39 | 2.84 | > 55.3
10 | COc1cc(OC)cc(-c2ccc(-c3ccc(C(=N)N)o3)o2)c1 | 3.51 | 14.8 | 2.34 | 5.25 | 1.84 | 3.79 | 9.25 | 22.3 | 2.06 | 4.25 | 3.02 | 10.6 | 3.4 | 13.2 | 4.77 | 17.5 | 4.28 | 15.2 | 22.6 | 44.6
11 | COc1cnc2cc(C(=O)O)c3c([N+](=O)[O-])cccc3c2c1 | – | > 100 | – | > 100 | – | > 100 | – | > 100 | – | > 100 | – | > 100 | – | > 100 | – | > 100 | – | > 100 | – | > 100
12 | O=[N+]([O-])/C=C\c1ccc(Cl)c(Cl)c1 | 11.5 | 24 | 8.89 | 31.3 | 3.48 | 12.8 | 1.63 | 3.31 | 1.83 | 3.73 | 3.77 | 16.7 | 2.42 | 6.97 | 1.24 | 3.93 | 1.81 | 4.15 | 12 | 27.9
13 | CCOC(=O)CCc1cc(=O)oc2cc(O)cc(O)c12 | – | > 100 | – | > 100 | – | > 100 | – | > 100 | – | > 100 | – | > 100 | – | > 100 | – | > 100 | – | > 100 | – | > 100
14 | O=C(Nc1ccc(N2CCNCC2)cc1)c1[nH]ncc1Nc1cc(Oc2ccccc2)ncn1 | 2.59 | – | 1.78 | 4.24 | 1.19 | 2.78 | 2.12 | 7.85 | 1.7 | 3.27 | 3.19 | 12.5 | 3.57 | 14.4 | 1.47 | 3.2 | 3.03 | 11.2 | 1.91 | 10.5
